Test results from US20230284620A1, “MIXTURES OF PYRIDAZINES AS HERBICIDAL COMPOSITIONS” (SYNGENTA CROP PROTECTION AG, priority 2020, published 2023).
Several values for one entry are separate records, joined by “and”; a condition that tells them apart may be missing. Equal values may be shown once.

Columns and labels:
Experiment in all cases: Post-emergence glasshouse herbicide test, visual phytotoxicity
Assay type in all cases: in vivo
Conditions in all cases: 13 days
[1] = test system: Digitaria sanguinalis (DIGSA)
Experimental: (§1) Seeds of Setaria faberi (SETFA), Echinochloa crus-galli (ECHCG), Digitaria sanguinalis (DIGSA), Lolium perenne (LOLPE), Alopecurus myosuroides (ALOMY), Chenopodium album (CHEAL), Ipomoea hederacea (IPOHE), Stellaria media (STEME), Abutilon threophrasti (ABUTH) and Amaranthus retroflexus (AMARE) were sown in standard sterilised soil in pots. After cultivation for 8 days under controlled conditions in a glasshouse (at 24/19° C., day/night; 16 hours light; no humidity control), the plants were sprayed at 500 l/Ha with an aqueous spray solution derived from the formulation of the technical active ingredients in a small amount of acetone and a solvent and emulsifier mixture referred to as IF50 (11.12% Emulsogen EL360 TM+44.44% N-methylpyrrolidone+44.44% Dowanol DPM glycol ether), to create a 50 g/l solution which was then diluted using 0.2% Genapol X080 (CAS Number: 9043-30-5) as diluent to give the desired final dose of test compound.
(§2) Where active ingredients were applied as mixtures, aqueous spray solutions were prepared as above, containing both active ingredients.
(§3) The test plants were then grown under controlled conditions in a glasshouse (at 24/18° C., day/night; 15 hours light; 50% humidity) and watered twice daily. After 13 days, the test was evaluated visually for percentage phytotoxicity to the plants (where 100=total damage to plant; 0=no damage to plant; and NC=not captured) when compared to control untreated plants. Two to four replicates were applied for each treatment in a randomised block test design.
(§4) 22., E=X+Y−(X*Y/100), where • X=average percent phytotoxicity of herbicide A when applied at a certain rate • Y=average percent phytotoxicity using herbicide B when applied at a certain rate • E=the expected effect of the mixture of herbicides A and B as calculated from the Colby formula.

[2] = test system: Chenopodium album (CHEAL)
Experimental: as §1, §2, §3, §4

Lolium perenne (LOLPE) = test system: Lolium perenne (LOLPE)
Experimental: as §1, §2, §3, §4

Stellaria media (STEME) = test system: Stellaria media (STEME)
Experimental: as §1, §2, §3, §4

[3] = test system: Ipomoea hederacea (IPOHE)
Experimental: as §1, §2, §3, §4

[4] = test system: Echinochloa crus-galli (ECHCG)
Experimental: as §1, §2, §3, §4

Setaria faberi (SETFA) = test system: Setaria faberi (SETFA)
Experimental: as §1, §2, §3, §4

[5] = test system: Amaranthus retroflexus (AMARE)
Experimental: as §1, §2, §3, §4

[6] = test system: Abutilon threophrasti (ABUTH)
Experimental: as §1, §2, §3, §4

[7] = test system: Alopecurus myosuroides (ALOMY)
Experimental: as §1, §2, §3, §4

CC1(C)CN(Cc2ccccc2NS(=O)(=O)C(F)(F)F)C1=O [B-IV]
percentage phytotoxicity DIGSA ([1]; 31.25 g/ha): 0%
percentage phytotoxicity DIGSA ([1]; 62.5 g/ha): 0%
percentage phytotoxicity DIGSA ([1]; 125 g/ha): 18%
percentage phytotoxicity DIGSA ([1]; 250 g/ha): 38%
percentage phytotoxicity DIGSA ([1]; 500 g/ha): 70%
percentage phytotoxicity CHEAL ([2]; 31.25 g/ha): 15%
percentage phytotoxicity CHEAL ([2]; 62.5 g/ha): 30%
percentage phytotoxicity CHEAL ([2]; 125 g/ha): 15%
percentage phytotoxicity CHEAL ([2]; 250 g/ha): 20%
percentage phytotoxicity CHEAL ([2]; 500 g/ha): 58%
percentage phytotoxicity LOLPE (Lolium perenne (LOLPE); 31.25 g/ha): 0%
percentage phytotoxicity LOLPE (Lolium perenne (LOLPE); 62.5 g/ha): 0%
percentage phytotoxicity LOLPE (Lolium perenne (LOLPE); 125 g/ha): 33%
percentage phytotoxicity LOLPE (Lolium perenne (LOLPE); 250 g/ha): 48%
percentage phytotoxicity LOLPE (Lolium perenne (LOLPE); 500 g/ha): 80%
percentage phytotoxicity STEME (Stellaria media (STEME); 31.25 g/ha): 68%
percentage phytotoxicity STEME (Stellaria media (STEME); 62.5 g/ha): 78%
percentage phytotoxicity STEME (Stellaria media (STEME); 125 g/ha): 80%
percentage phytotoxicity STEME (Stellaria media (STEME); 250 g/ha): 80%
percentage phytotoxicity STEME (Stellaria media (STEME); 500 g/ha): 83%
percentage phytotoxicity IPOHE ([3]; 31.25 g/ha): 75%
percentage phytotoxicity IPOHE ([3]; 62.5 g/ha): 35%
percentage phytotoxicity IPOHE ([3]; 125 g/ha): 88%
percentage phytotoxicity IPOHE ([3]; 250 g/ha): 89%
percentage phytotoxicity IPOHE ([3]; 500 g/ha): 93%
percentage phytotoxicity ECHCG ([4]; 31.25 g/ha): 0%
percentage phytotoxicity ECHCG ([4]; 62.5 g/ha): 0%
percentage phytotoxicity ECHCG ([4]; 125 g/ha): 45%
percentage phytotoxicity ECHCG ([4]; 250 g/ha): 53%
percentage phytotoxicity ECHCG ([4]; 500 g/ha): 63%
percentage phytotoxicity SETFA (Setaria faberi (SETFA); 31.25 g/ha): 0%
percentage phytotoxicity SETFA (Setaria faberi (SETFA); 62.5 g/ha): 0%
percentage phytotoxicity SETFA (Setaria faberi (SETFA); 125 g/ha): 23% and 22%
percentage phytotoxicity SETFA (Setaria faberi (SETFA); 250 g/ha): 48%
percentage phytotoxicity SETFA (Setaria faberi (SETFA); 500 g/ha): 50%
percentage phytotoxicity AMARE ([5]; 31.25 g/ha): 73%
percentage phytotoxicity AMARE ([5]; 62.5 g/ha): 80%
percentage phytotoxicity AMARE ([5]; 125 g/ha): 83%
percentage phytotoxicity AMARE ([5]; 250 g/ha): 85%
percentage phytotoxicity AMARE ([5]; 500 g/ha): 83%
percentage phytotoxicity ABUTH ([6]; 31.25 g/ha): 15%
percentage phytotoxicity ABUTH ([6]; 62.5 g/ha): 3%
percentage phytotoxicity ABUTH ([6]; 125 g/ha): 13%
percentage phytotoxicity ABUTH ([6]; 250 g/ha): 45%
percentage phytotoxicity ABUTH ([6]; 500 g/ha): 60%
percentage phytotoxicity ALOMY ([7]; 31.25 g/ha): 0%
percentage phytotoxicity ALOMY ([7]; 62.5 g/ha): 0%
percentage phytotoxicity ALOMY ([7]; 125 g/ha): 23%
percentage phytotoxicity ALOMY ([7]; 250 g/ha): 50%
percentage phytotoxicity ALOMY ([7]; 500 g/ha): 73%

CCOC(=O)COc1ncccc1Oc1cc(-n2c(=O)cc(C(F)(F)F)n(C)c2=O)c(F)cc1Cl [B-V]
percentage phytotoxicity DIGSA ([1]; 0.08 g/ha): 0%
percentage phytotoxicity DIGSA ([1]; 0.16 g/ha): 13%
percentage phytotoxicity DIGSA ([1]; 0.32 g/ha): 40%
percentage phytotoxicity DIGSA ([1]; 0.625 g/ha): 50%
percentage phytotoxicity DIGSA ([1]; 1.25 g/ha): 68%
percentage phytotoxicity CHEAL ([2]; 0.08 g/ha): 8%
percentage phytotoxicity CHEAL ([2]; 0.16 g/ha): 63%
percentage phytotoxicity CHEAL ([2]; 0.32 g/ha): 78%
percentage phytotoxicity CHEAL ([2]; 0.625 g/ha): 80%
percentage phytotoxicity CHEAL ([2]; 1.25 g/ha): 95%
percentage phytotoxicity LOLPE (Lolium perenne (LOLPE); 0.08 g/ha): 0%
percentage phytotoxicity LOLPE (Lolium perenne (LOLPE); 0.16 g/ha): 5%
percentage phytotoxicity LOLPE (Lolium perenne (LOLPE); 0.32 g/ha): 38%
percentage phytotoxicity LOLPE (Lolium perenne (LOLPE); 0.625 g/ha): 30%
percentage phytotoxicity LOLPE (Lolium perenne (LOLPE); 1.25 g/ha): 60%
percentage phytotoxicity STEME (Stellaria media (STEME); 0.08 g/ha): 15%
percentage phytotoxicity STEME (Stellaria media (STEME); 0.16 g/ha): 45%
percentage phytotoxicity STEME (Stellaria media (STEME); 0.32 g/ha): 85%
percentage phytotoxicity STEME (Stellaria media (STEME); 0.625 g/ha): 95%
percentage phytotoxicity STEME (Stellaria media (STEME); 1.25 g/ha): 100%
percentage phytotoxicity IPOHE ([3]; 0.08 g/ha): 23%
percentage phytotoxicity IPOHE ([3]; 0.16 g/ha): 50%
percentage phytotoxicity IPOHE ([3]; 0.32 g/ha): 55%
percentage phytotoxicity IPOHE ([3]; 0.625 g/ha): 93%
percentage phytotoxicity IPOHE ([3]; 1.25 g/ha): 88%
percentage phytotoxicity ECHCG ([4]; 0.08 g/ha): 0%
percentage phytotoxicity ECHCG ([4]; 0.16 g/ha): 0%
percentage phytotoxicity ECHCG ([4]; 0.32 g/ha): 10%
percentage phytotoxicity ECHCG ([4]; 0.625 g/ha): 8%
percentage phytotoxicity ECHCG ([4]; 1.25 g/ha): 20%
percentage phytotoxicity SETFA (Setaria faberi (SETFA); 0.08 g/ha): 0%
percentage phytotoxicity SETFA (Setaria faberi (SETFA); 0.16 g/ha): 0%
percentage phytotoxicity SETFA (Setaria faberi (SETFA); 0.32 g/ha): 20%
percentage phytotoxicity SETFA (Setaria faberi (SETFA); 0.625 g/ha): 20%
percentage phytotoxicity SETFA (Setaria faberi (SETFA); 1.25 g/ha): 33%
percentage phytotoxicity AMARE ([5]; 0.08 g/ha): 35%
percentage phytotoxicity AMARE ([5]; 0.16 g/ha): 100%
percentage phytotoxicity AMARE ([5]; 0.32 g/ha): 100%
percentage phytotoxicity AMARE ([5]; 0.625 g/ha): 100%
percentage phytotoxicity AMARE ([5]; 1.25 g/ha): 100%
percentage phytotoxicity ABUTH ([6]; 0.08 g/ha): 23%
percentage phytotoxicity ABUTH ([6]; 0.16 g/ha): 75%
percentage phytotoxicity ABUTH ([6]; 0.32 g/ha): 85%
percentage phytotoxicity ABUTH ([6]; 0.625 g/ha): 100%
percentage phytotoxicity ABUTH ([6]; 1.25 g/ha): 100%
percentage phytotoxicity ALOMY ([7]; 0.08 g/ha): 0%
percentage phytotoxicity ALOMY ([7]; 0.16 g/ha): 5%
percentage phytotoxicity ALOMY ([7]; 0.32 g/ha): 50%
percentage phytotoxicity ALOMY ([7]; 0.625 g/ha): 55%
percentage phytotoxicity ALOMY ([7]; 1.25 g/ha): 78%
